Data as given in the NIST ThermoML archive (doi:10.1021/je900732r).
Values joined by “and” are separate entries in the source; they are usually repeats but may differ in a detail not shown here. Equal entries are not always repeated. ± gives the expanded uncertainty stated by the source.

Tests used:
[1] = Liquid; for mass density: 101 kPa
[2] = mn = molality of the nth substance listed, in mol/kg; details: 101 kPa, Liquid

C[S+](C)[O-] [dimethyl sulfoxide]
[1]
Details	mass density
293.15 K	1100.22 ± 0.56 kg/m3 and 1100.23 ± 0.56 kg/m3
298.15 K	1095.19 ± 0.55 kg/m3 and 1095.2 ± 0.56 kg/m3
303.15 K	1090.17 ± 0.54 kg/m3 and 1090.18 ± 0.54 kg/m3
313.15 K	1080.12 ± 0.52 kg/m3 and 1080.12 ± 0.53 kg/m3
323.15 K	1070.08 ± 0.5 kg/m3 and 1070.08 ± 0.51 kg/m3
333.15 K	1060.04 ± 0.49 kg/m3 and 1060.03 ± 0.49 kg/m3

CO [methanol]
[1]
Details	mass density
283.15 K	800.55 ± 0.48 kg/m3 and 800.541 ± 0.48 kg/m3 and 800.548 ± 0.5 kg/m3
288.15 K	795.872 ± 0.49 kg/m3 and 795.866 ± 0.49 kg/m3 and 795.857 ± 0.51 kg/m3
293.15 K	791.172 ± 0.5 kg/m3 and 791.169 ± 0.5 kg/m3 and 791.162 ± 0.51 kg/m3
298.15 K	786.46 ± 0.51 kg/m3 and 786.452 ± 0.52 kg/m3 and 786.464 ± 0.5 kg/m3
303.15 K	781.742 ± 0.51 kg/m3 and 781.733 ± 0.51 kg/m3 and 781.722 ± 0.52 kg/m3
308.15 K	776.992 ± 0.52 kg/m3 and 776.979 ± 0.52 kg/m3 and 776.978 ± 0.53 kg/m3
313.15 K	772.214 ± 0.52 kg/m3 and 772.189 ± 0.53 kg/m3 and 772.2 ± 0.54 kg/m3

Details	speed of sound [m/s]
[1], 298.15 K, 101.33 kPa, Pulse-echo method	1101.2 ± 0.77

[Ni+2].[O-][Cl+3]([O-])([O-])[O-].[O-][Cl+3]([O-])([O-])[O-] [nickel perchlorate] + C[S+](C)[O-]
mass density [kg/m3], [2]
Details	293.15 K	298.15 K	303.15 K	313.15 K	323.15 K	333.15 K
m1 = 0.01259	1102.91 ± 0.57	1097.89 ± 0.56	1092.88 ± 0.55	1082.85 ± 0.53	1072.82 ± 0.52	1062.8 ± 0.5
m1 = 0.01738	1103.94 ± 0.57	1098.92 ± 0.56	1093.91 ± 0.55	1083.88 ± 0.54	1073.87 ± 0.52	1063.85 ± 0.5
m1 = 0.02515	1105.61 ± 0.57	1100.6 ± 0.57	1095.59 ± 0.56	1085.57 ± 0.54	1075.56 ± 0.52	1065.56 ± 0.5
m1 = 0.03153	1106.98 ± 0.58	1101.97 ± 0.57	1096.96 ± 0.56	1086.96 ± 0.54	1076.96 ± 0.53	1066.96 ± 0.51
m1 = 0.03816	1108.41 ± 0.58	1103.4 ± 0.57	1098.4 ± 0.56	1088.4 ± 0.55	1078.41 ± 0.53	1068.42 ± 0.51
m1 = 0.051	1111.18 ± 0.59	1106.18 ± 0.58	1101.18 ± 0.57	1091.2 ± 0.55	1081.23 ± 0.54	1071.27 ± 0.52
m1 = 0.06341	1113.88 ± 0.6	1108.88 ± 0.59	1103.89 ± 0.58	1093.92 ± 0.56	1083.97 ± 0.54	1074.01 ± 0.53
m1 = 0.07675	1116.78 ± 0.6	1111.79 ± 0.59	1106.81 ± 0.58	1096.86 ± 0.57	1086.92 ± 0.55	1076.99 ± 0.53
m1 = 0.08797	1119.23 ± 0.61	1114.24 ± 0.6	1109.27 ± 0.59	1099.34 ± 0.57	1089.42 ± 0.56	1079.5 ± 0.54
m1 = 0.1004	1121.96 ± 0.62	1116.98 ± 0.61	1112.02 ± 0.6	1102.1 ± 0.58	1092.19 ± 0.56	1082.3 ± 0.55
m1 = 0.1126	1124.63 ± 0.62	1119.67 ± 0.61	1114.7 ± 0.6	1104.8 ± 0.59	1094.91 ± 0.57	1085.03 ± 0.55
m1 = 0.1251	1127.4 ± 0.63	1122.43 ± 0.62	1117.49 ± 0.61	1107.6 ± 0.59	1097.73 ± 0.58	1087.86 ± 0.56

[O-][Cl+3]([O-])([O-])[O-].[O-][Cl+3]([O-])([O-])[O-].[Zn+2] [zinc perchlorate] + C[S+](C)[O-]
mass density [kg/m3], [2]
Details	293.15 K	298.15 K	303.15 K	313.15 K	323.15 K	333.15 K
m1 = 0.0168	1103.88 ± 0.57	1098.86 ± 0.56	1093.85 ± 0.55	1083.82 ± 0.54	1073.81 ± 0.52	1063.78 ± 0.5
m1 = 0.02409	1105.47 ± 0.58	1100.46 ± 0.57	1095.45 ± 0.56	1085.43 ± 0.54	1075.43 ± 0.52	1065.41 ± 0.51
m1 = 0.02918	1106.59 ± 0.58	1101.58 ± 0.57	1096.56 ± 0.56	1086.56 ± 0.54	1076.56 ± 0.53	1066.55 ± 0.51
m1 = 0.03465	1107.79 ± 0.58	1102.78 ± 0.57	1097.78 ± 0.56	1087.77 ± 0.55	1077.77 ± 0.53	1067.77 ± 0.51
m1 = 0.05104	1111.38 ± 0.59	1106.39 ± 0.58	1101.39 ± 0.57	1091.4 ± 0.56	1081.43 ± 0.54	1071.45 ± 0.52
m1 = 0.06794	1115.12 ± 0.6	1110.13 ± 0.59	1105.14 ± 0.58	1095.18 ± 0.56	1085.22 ± 0.55	1075.26 ± 0.53
m1 = 0.08574	1119.08 ± 0.61	1114.1 ± 0.6	1109.12 ± 0.59	1099.17 ± 0.57	1089.23 ± 0.56	1079.3 ± 0.54
m1 = 0.1022	1122.78 ± 0.62	1117.8 ± 0.61	1112.83 ± 0.6	1102.91 ± 0.58	1092.99 ± 0.57	1083.08 ± 0.55
m1 = 0.119	1126.55 ± 0.63	1121.58 ± 0.62	1116.62 ± 0.61	1106.7 ± 0.59	1096.8 ± 0.57	1086.9 ± 0.56
m1 = 0.1435	1132.09 ± 0.64	1127.14 ± 0.64	1122.19 ± 0.63	1112.3 ± 0.61	1102.43 ± 0.59	1092.57 ± 0.57
m1 = 0.1684	1137.8 ± 0.66	1132.85 ± 0.65	1127.91 ± 0.64	1118.05 ± 0.62	1108.21 ± 0.6	1098.37 ± 0.59
